The results in this text go back to patent publication US20120220537A1, “9-AMINOACRIDINE DERIVATIVES, THEIR PREPARATION AND USES” (ARIEL-UNIVERSITY RESEARCH AND DEVELOPMENT COMPANY LTD., priority 2009, published 2012).

Common to all, as to format: cell-based
Series [1] relates to NCI-ADR (associated with multidrug resistance (MDR) phenomena ovarian cancer). In words: In vitro cytotoxicity, neutral red uptake. The settings on record: NCIADR cells, 24 h treatment, read-out: anticancer activity (IC50) NCIADR. Here is the method: (§1) Cells (250000/well) were cultured in 24-well plates for 24 h to 70-80% confluence or cells (20000/well) were cultured in 96-well plates for 24 h or overnight to 70-80% confluence. Four 24-well plates and one 96-well plate have been seeded. The following concentrations of the compounds were examined (each one in triplicate)-0 microgram/μl, 0.05 microgram/ml, 0.5 microgram/ml, 5 microgram/ml, 50 microgram/ml. The volume of wells in 24-well plates was 0.5 ml while that of 96-well plates was 0.1 ml. After the 24 h treatment the culture medium in the wells were replaced with 0.5 ml fresh medium containing 1:100 dilution of neutral red (10 microliters/1 ml). The plates were incubated for 2 h in a dark in culture incubator. The medium was aspirated and the cells washed twice with 0.5/0.1 ml of solution containing 1% CaCl2 and 0.5% formaldehyde. The dye was extracted from cells upon addition of 0.5/0.1 ml 1% glacial acetic acid in 50% ethanol with 10 min incubation at room temperature. The absorbance was measured spectrophotometrically at a wavelength of 540 nm. The background absorbance measurement of the multiwell plates was done at 690 nm and subtract from 540 nm.

In series [2] the test system is MCF-7 (breast cancer). In words: In vitro cytotoxicity, neutral red uptake. The settings on record: MCF7 wt cells, 24 h treatment, read-out: anticancer activity (IC50) MCF7 wt. Here is the method: as §1
Series [3] deals with H1299 (lung carcinoma). The experiment in a line: In vitro cytotoxicity, neutral red uptake. The settings on record: 24 h treatment, read-out: anticancer activity (IC50) H1299. Here is the method: as §1
Series [4] concerns HT29 (colon carcinoma). The experiment in a line: In vitro cytotoxicity, neutral red uptake. As to conditions: 24 h treatment, read-out: anticancer activity (IC50) HT29. Here is the method: as §1
For series [5], the system named is MDM-MD-A31 (renal cancer). The experiment in a line: In vitro cytotoxicity, neutral red uptake. As to conditions: MDM-MD-A31 cells, 24 h treatment, read-out: anticancer activity (IC50) MDM-MD-A31. Here is the method: as §1
Series [6] relates to MCF-7mito (mitoxantrone selected and associated with MDR phenomena breast cancer). In words: In vitro cytotoxicity, neutral red uptake. The settings on record: read-out: anticancer activity (IC50) MCF7 mito. Here is the method: as §1
Series [7] deals with OVCAR8 (ovarian cancer). In words: In vitro cytotoxicity, neutral red uptake. The settings on record: 24 h treatment, read-out: anticancer activity (IC50) OVCAR8. Here is the method:
as §1

For series [8], the system named is cancer cell lines MDM-MD-A31, MCF-7, HT29, OVCAR8, NCI-ADR, MCF-7mito and H1299. The experiment in a line: In vitro cytotoxicity, all tested cancer cell lines. As to conditions: statement in words. Here is the method:
as §1

The mark [9] stands for this setting: Homo sapiens, NCI-H1299, H1299 cells.
Where [10] appears, read: Homo sapiens, HT-29, HT29 cells.
[11] abbreviates: Homo sapiens, MCF7 mito cells, 24 h treatment, neutral red.
Setting [12] is: Homo sapiens, OVCAR-8, OVCAR8 cells.

“Also recorded” adds a separate entry of the source. Where two headings read alike, the source gives them in different places. Where only a bound is given, the exact number is not on record here.

As usually defined, the IC50 is the concentration that inhibits the measured activity by half. As to `O=[N+]([O-])c1ccc(O)cc1CNc1c2ccccc2nc2ccccc12` [Compound 4, N-(2-nitro-5-hydroxy-benzyl)acridin-9-amine], the IC50 is 86.4 µM in series [1] (Homo sapiens, NCI/ADR-RES); 58.6 µM in series [2] (Homo sapiens); greater than 100 µM in series [3] (setting [9]); 7.14 µM in series [4] (setting [10]); 75.6 µM in series [5]; 18.4 µM in series [6] (setting [11]). The IC50 in series [7] (setting [12]) was 15.4 µM.
As for `O=[N+]([O-])c1cc([N+](=O)[O-])c(Nc2c3ccccc3nc3ccccc23)cc1F` [Compound 18, N-(2,4-dinitro-5-fluorophenyl)acridin-9-amine], the 50% inhibitory concentration (IC50) in series [5] amounted to 0.3 µM.
Take `O=C(NC(CO)C(=O)O)c1ccc(Nc2c3ccccc3nc3ccccc23)c([N+](=O)[O-])c1` (stereo not drawn) [Compound 42, (2-(4-(acridin-9-ylamino)-3-nitrobenzamido)-3-hydroxypropanoic acid)]: the concentration for half-maximal inhibition (IC50) came to 2.2 µM in series [4] (setting [10]), 0.4 µM in series [5] and 4.5 µM in series [6] (setting [11]).
Turning to amsacrine [reference compound], the IC50 amounted to 16.1 µM in series [1]; 19.8 µM in series [2]; 119 µM in series [3] (H1299 cells); 2.2 µM in series [4] (HT29 cells); 17.2 µM in series [5]; 1.5 µM in series [6] (MCF7 mito cells, 24 h treatment, neutral red). Also, in series [7] (OVCAR8 cells), the half-maximal inhibitory concentration (IC50) worked out at 21.9 µM.
As for `O=[N+]([O-])c1ccc(Nc2c3ccccc3nc3ccccc23)c([N+](=O)[O-])c1` [Compound 12, N-(2,4-dinitrophenyl)acridin-9-amine], the IC50 in series [1] (Homo sapiens, NCI/ADR-RES) was 15.4 µM; in series [2] (Homo sapiens), 89.1 µM; in series [3] (setting [9]), greater than 100 µM; in series [4] (setting [10]), 71.3 µM; in series [5], greater than 100 µM; in series [6] (Homo sapiens, MCF7, 24 h), 7.2 µM. In series [7] (setting [12]), the IC50 came out at 33.8 µM.
As for `O=[N+]([O-])c1cccnc1Nc1c2ccccc2nc2ccccc12` [Compound 21, N-(3-nitropyrid-2-yl)acridin-9-amine], the IC50 amounted to 0.7 µM in series [3] (setting [9]), 0.8 µM in series [5] and 1.6 µM in series [6] (setting [11]).
Turning to `COc1cc([N+](=O)[O-])ccc1Nc1c2ccccc2nc2ccccc12` [Compound 20, N-(2-methoxy-4-nitrophenyl)acridin-9-amine], the values for the IC50 in series [4] (setting [10]), in series [5] and in series [7] (setting [12]) were 1.2 µM, 0.1 µM and 0.6 µM, respectively.
As to `Nc1c2ccccc2nc2ccccc12` [9-aminoacridine], the IC50 was determined as 21 µM in series [1] (Homo sapiens, NCI/ADR-RES); 11.2 µM in series [2] (Homo sapiens); 32.8 µM in series [3] (setting [9]); 2.25 µM in series [4] (setting [10]); 1.5 µM in series [5]; 163 µM in series [6] (setting [11]). For the same compound, the half-maximal inhibitory concentration (IC50) in series [7] (setting [12]) stood at 1.7 µM.
Turning to `O=C(O)c1ccc(Nc2c3ccccc3nc3ccccc23)c([N+](=O)[O-])c1` [Compound 13, 4-(acridin-9-ylamino)-3-nitrobenzoic acid], the 50% inhibitory concentration (IC50) came to 54.2 µM in series [1] (Homo sapiens, NCI/ADR-RES); 11.6 µM in series [2] (Homo sapiens); 86.4 µM in series [3] (setting [9]); 3.6 µM in series [4] (setting [10]); 0.6 µM in series [5]; 7.2 µM in series [6] (setting [11]). Moreover, in series [7] (setting [12]), the IC50 is 6.5 µM. For the same compound, the “cytotoxicity compared with reference or other tested compounds” value in series [8] is on record as “more cytotoxic than the corresponding 9-aminoacridine”.
Consider `NC(=O)c1ccc(Nc2c3ccccc3nc3ccccc23)c([N+](=O)[O-])c1` [Compound 14, 4-(acridin-9-ylamino)-3-nitrobenzamide], for which the results for the IC50 in series [4] (setting [10]), in series [5] and in series [6] (setting [11]) were 3.6 µM, 0.6 µM and 7.2 µM, respectively.
Take `O=C1C(Br)=C(Br)C(=O)C(Nc2c3ccccc3nc3ccccc23)=C1Br` [Compound 38, 2-(acridin-9-ylamino)-3,5,6-tribromobenzoquinone]: the IC50 in series [7] (setting [12]) was 3.7 µM.
Consider `Oc1ccc2ccccc2c1CNc1c2ccccc2nc2ccccc12` [Compound 8, N-(2-hydroxy-naphthylmethyl)acridin-9-amine], for which the half-inhibitory concentration (IC50) in series [1] (Homo sapiens, NCI/ADR-RES) stood at 42.3 µM; in series [2] (Homo sapiens), 14.1 µM; in series [3] (setting [9]), 62.6 µM; in series [4] (setting [10]), 2.6 µM; in series [5] it was 13.2 µM; in series [6] (setting [11]), 1.8 µM. Moreover, the IC50 in series [7] (setting [12]) came to 9.1 µM.
On to `O=C1C(Cl)=C(Nc2c3ccccc3nc3ccccc23)C(=O)c2ccccc21` [Compound 39, 2-(acridin-9-ylamino)-3-chloronaphthoquinone], for which the IC50 was 0.15 µM in series [5], 0.8 µM in series [6] (setting [11]) and 1.2 µM in series [7] (setting [12]).
For `NCCCCC(NC(=O)c1ccc(Nc2c3ccccc3nc3ccccc23)c([N+](=O)[O-])c1)C(N)=O` (stereo not drawn) [Compound 46, 4-(acridin-9-ylamino)-N-(1,6-diamino-1-oxohex-2-yl)-3-nitro-benzamide], the IC50 was 86.4 µM in series [1] (Homo sapiens, NCI/ADR-RES); 58.6 µM in series [2] (Homo sapiens); greater than 100 µM in series [3] (setting [9]); 7.14 µM in series [4] (setting [10]); 75.6 µM in series [5]; 18.4 µM in series [6] (setting [11]). For the same compound, the concentration for half-maximal inhibition (IC50) in series [7] (setting [12]) was determined as 15.4 µM.
For the compound `O=[N+]([O-])c1ccccc1Nc1c2ccccc2nc2ccccc12` [Compound 10, N-(2-nitrophenyl)acridin-9-amine], the IC50 in series [1] (Homo sapiens, NCI/ADR-RES) is 40.3 µM; in series [2] (Homo sapiens), greater than 100 µM; in series [3] (setting [9]) it was greater than 100 µM; in series [4] (setting [10]), 74.2 µM; in series [5], greater than 100 µM; in series [6] (setting [11]), 46.7 µM. For the same compound, the IC50 in series [7] (setting [12]) was greater than 100 µM.
Turning to `O=C(O)c1ccccc1CNc1c2ccccc2nc2ccccc12` [Compound 1, 2-(acridin-9-ylaminomethyl)benzoic acid], the concentration for half-maximal inhibition (IC50) came out at 12.2 µM in series [1] (Homo sapiens, NCI/ADR-RES); 20.2 µM in series [2] (Homo sapiens); 74.3 µM in series [3] (setting [9]); 1.2 µM in series [4] (setting [10]); 10.3 µM in series [5]; 0.76 µM in series [6] (setting [11]). In series [7] (setting [12]), the 50% inhibitory concentration (IC50) was found to be 0.71 µM. Moreover, in series [8], the “cytotoxicity compared with reference or other tested compounds” value is “more cytotoxic than the corresponding 9-aminoacridine”.
In the case of `CCOC1=C(Nc2c3ccccc3nc3ccccc23)C(=O)c2c(O)ccc(O)c2C1=O` [Compound 41, 2-(acridin-9-ylamino)-3-ethoxy-5,8-dihydroxy-naphthoquinone], the IC50 was 0.14 µM in series [3] (setting [9]), 1.1 µM in series [4] (setting [10]), 0.06 µM in series [5] and 0.5 µM in series [6] (setting [11]). Besides, the “cytotoxicity compared with reference or other tested compounds” value in series [8] is “greater activity against all above mentioned cell lines than the anticancer drug amsacrine; also recorded: the most potent among the tested compounds”.
